The values below come from patent publication US12257247B2 (Monte Rosa Therapeutics AG, priority 2023, dated 2025).

Structures are written as SMILES. Read-outs that look alike come from different tables or passages of the source. Some results are limits rather than exact numbers.

For the assay, the target named is T1, VAV1 (Homo sapiens, UniProt P15498+Q96SW2).
T1 construct: A heterozygous VAV1 C-terminal HiBiT knock-in pool was generated at Monte Rosa Therapeutics from a clonal Jurkat cell; endogenous in cells; host or cells: Jurkat clone stably expressing LgBiT, homozygous GSPT1-G575N; heterozygous VAV1-HiBiT knock-in pool
Description: VAV1 degradation activity, VAV1-HiBiT knock-in Jurkat luminescence assay (Example A, Table 1). Type of assay: cell-based. The following applies: VAV1-HiBiT knock-in Jurkat cells, luminescence read at 6 and 24 hours; for Dmax: Jurkat. A digest of the protocol: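 Luminescence was measured at 6 and 24 h after adding compound (10 μM stock) to VAV1-HiBiT knock-in Jurkat cells, which had been pre-incubated ~16 h at 37° C. in RPMI/10% FBS containing Endurazine. EC50 values came from control-normalised responses fitted to a 3-parameter logistic model with hillslope fixed at 1.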

Where [1] appears, read: read-out: VAV1 DC50 (nM), class.

A word on the Dmax: it is the greatest extent of degradation seen. For orientation: DC50 means the concentration at which degradation of the target reaches its halfway point. As to `CC1CCC(F)(F)C(=O)N1Cc1ccc(-c2cccc(C3CCC(=O)NC3=O)c2Cl)cc1` (stereo not shown) [Compound 266], the Dmax is, setting by setting: (read-out: VAV1 Dmax %) 93.2%; (read-out: VAV1 Dmax %, class) above 90%. In addition, the DC50 by setting is: (read-out: VAV1 DC50) 14.1 nM; under setting [1], at most 100 nM.
As to `O=C1CCC(c2cccc(-c3ccc(N4CCn5cncc5C4=O)cc3)c2Cl)C(=O)N1` (stereo not shown) [Compound 315], the Dmax runs as follows: (read-out: VAV1 Dmax %) 89.8%; (read-out: VAV1 Dmax %, class) 60 to 90%. Further, the DC50 is 22 nM (read-out: VAV1 DC50) and at most 100 nM under setting [1].
Consider `CN1CC(=O)N(Cc2ccc(-c3cccc(C4CCC(=O)NC4=O)c3Cl)cc2)c2cccnc21` (stereo not shown) [Compound 255], for which the Dmax runs as follows: (read-out: VAV1 Dmax %) 89.5%; (read-out: VAV1 Dmax %, class) 60 to 90%. Also, the DC50 runs as follows: (read-out: VAV1 DC50) 11 nM; under setting [1], at most 100 nM.
Take `O=C1CCC(c2cccc(-c3cnc(N4CCCCC4=O)c(F)c3)c2Cl)C(=O)N1` (stereo not shown) [Compound 369, 3-(2-chloro-3-(5-fluoro-6-(2-oxopiperidin-1-yl)pyridin-3-yl)phenyl)piperidine-2,6-dione]: the Dmax is, setting by setting: (read-out: VAV1 Dmax %) 69.5%; (read-out: VAV1 Dmax %, class) 60 to 90%. Moreover, the DC50 by setting is: (read-out: VAV1 DC50) 331 nM; under setting [1], 100 to 1000 nM.
The matching figures for `CC(C)Nc1ccc(-c2cccc(C3CCC(=O)NC3=O)c2Cl)cc1` (stereo not shown) [Compound 129, 3-(2-chloro-4′-(isopropylamino)-[1,1′-biphenyl]-3-yl)piperidine-2,6-dione]: 68.2%, 60 to 90%, 240 nM and 100 to 1000 nM.
With `O=C1CCC(c2cccc(-c3ccc(-n4ccccc4=O)c(F)c3)c2Cl)C(=O)N1` (stereo not shown) [Compound 470, 3-(2-chloro-3′-fluoro-4′-(2-oxopyridin-1(2H)-yl)-[1,1′-biphenyl]-3-yl)piperidine-2,6-dione], the greatest degradation seen (Dmax) runs as follows: (read-out: VAV1 Dmax %) 97.1%; (read-out: VAV1 Dmax %, class) above 90%. Besides, the DC50 by setting is: (read-out: VAV1 DC50) 9.19 nM; under setting [1], at most 100 nM.
Turning to `CC1CCCN(c2ccc(-c3cccc(C4CCC(=O)NC4=O)c3Cl)cc2)C1=O` (stereo not shown) [Compound 329], the Dmax is, setting by setting: (read-out: VAV1 Dmax %) 95.8%; (read-out: VAV1 Dmax %, class) above 90%. Also, the half-maximal degradation concentration (DC50) by setting is: (read-out: VAV1 DC50) 6.62 nM; under setting [1], at most 100 nM.
The matching figures for `Cc1nc(Cc2ccc(-c3cccc(C4CCC(=O)NC4=O)c3Cl)cc2)no1` (stereo not shown) [Compound 473, 3-(2-chloro-4′-((5-methyl-1,2,4-oxadiazol-3-yl)methyl)-[1,1′-biphenyl]-3-yl)piperidine-2,6-dione]: 96.2%, above 90%, 9.34 nM and at most 100 nM.
For `Cn1ccc(NCc2ccc(-c3cccc(C4CCC(=O)NC4=O)c3Cl)cc2)n1` (stereo not shown) [Compound 196, 3-(2-chloro-4′-(((1-methyl-1H-pyrazol-3-yl)amino)methyl)-[1,1′-biphenyl]-3-yl)piperidine-2,6-dione], the Dmax reads like this: (read-out: VAV1 Dmax %) 95.6%; (read-out: VAV1 Dmax %, class) above 90%. For the same molecule, the DC50 is, setting by setting: (read-out: VAV1 DC50) 9.34 nM; under setting [1], at most 100 nM.
For the molecule `CC1(C)CN(c2cccc(-c3ccc(CC4CCC(=O)NC4=O)cc3Cl)c2)C(=O)CO1` (stereo not shown) [Compound 268], the “VAV1 Dmax %, class” value is given as “A (A represents a Dmax % >90%)”. Besides, the Dmax (read-out: VAV1 Dmax %) is 94.5%. Where the note is “read-out: VAV1 DC50”, the DC50 came out at 12.8 nM. For the same molecule, the DC50 under setting [1] was at most 100 nM.
Regarding `Cc1nn(C)c2c1N(c1ccc(-c3cccc(C4CCC(=O)NC4=O)c3Cl)cc1)C(=O)CO2` (stereo not shown) [Compound 333], the Dmax was 98.2% (read-out: VAV1 Dmax %) and above 90% (read-out: VAV1 Dmax %, class). The DC50 (read-out: VAV1 DC50) amounted to 3.17 nM and the 50% degradation concentration (DC50) under setting [1] is at most 100 nM.
Take `O=C1CCC(c2cccc(-c3ccc(CN4CC5CCCC5C4=O)cc3)c2Cl)C(=O)N1` (stereo not shown) [Compound 282]: the Dmax reads like this: (read-out: VAV1 Dmax %) 98%; (read-out: VAV1 Dmax %, class) above 90%. Also, the DC50 is, setting by setting: (read-out: VAV1 DC50) 3.88 nM; under setting [1], at most 100 nM.
With `Cc1cc(OCc2ccn(C)n2)ccc1-c1ccc(Cl)c(C2CCC(=O)NC2=O)c1` (stereo not shown) [Compound 152], the Dmax is 8.11% (read-out: VAV1 Dmax %) and below 60% (read-out: VAV1 Dmax %, class). Moreover, the DC50 runs as follows: (read-out: VAV1 DC50) at least 10000 nM; under setting [1], above 1000 nM.
With `O=C1CCC(c2cccc(-c3ccc(S(=O)(=O)N4CCCC4)cc3)c2Cl)C(=O)N1` (stereo not shown) [Compound 438, 3-(2-chloro-4′-(pyrrolidin-1-ylsulfonyl)-[1,1′-biphenyl]-3-yl) piperidine-2,6-dione], the maximal degradation (Dmax) (read-out: VAV1 Dmax %) was found to be 90.5% and the Dmax (read-out: VAV1 Dmax %, class) is above 90%. Also, the DC50 is 91.7 nM (read-out: VAV1 DC50) and at most 100 nM under setting [1].
In the case of `O=C1CCC(c2cccc(-c3ccc(OCc4c[nH]cn4)cc3)c2Cl)C(=O)N1` (stereo not shown) [Compound 167, 3-(4′-((1H-imidazol-4-yl)methoxy)-2-chloro-[1,1′-biphenyl]-3-yl)piperidine-2,6-dione], the Dmax was 87.3% (read-out: VAV1 Dmax %) and 60 to 90% (read-out: VAV1 Dmax %, class). In addition, the DC50 (read-out: VAV1 DC50) turned out to be 38.5 nM and the DC50 under setting [1] was at most 100 nM.
Regarding `O=C1CCC(c2cccc(-c3ccc(C4COC(=O)N4)c(F)c3)c2Cl)C(=O)N1` (stereo not shown) [Compound 107], the Dmax reads like this: (read-out: VAV1 Dmax %) 27%; (read-out: VAV1 Dmax %, class) below 60%. The DC50 was at least 10000 nM (read-out: VAV1 DC50) and above 1000 nM under setting [1].
With `CN(C)CCOc1ccc(-c2cccc(C3CCC(=O)NC3=O)c2Cl)cc1` (stereo not shown) [Compound 135], the Dmax by setting is: (read-out: VAV1 Dmax %) 34.9%; (read-out: VAV1 Dmax %, class) below 60%. Also, the DC50 was at least 10000 nM (read-out: VAV1 DC50) and above 1000 nM under setting [1].
`O=C1CCC(c2cccc(-c3ccc(Cc4cnccn4)cc3)c2Cl)C(=O)N1` (stereo not shown) [Compound 159, 3-(2-chloro-4′-(pyrazin-2-ylmethyl)-[1,1′-biphenyl]-3-yl)piperidine-2,6-dione]: the Dmax by setting is: (read-out: VAV1 Dmax %) 96%; (read-out: VAV1 Dmax %, class) above 90%. In addition, the DC50 by setting is: (read-out: VAV1 DC50) 14.8 nM; under setting [1], at most 100 nM.
On to `O=C1CCC(c2cccc(-c3ccc(N4CCCC(F)(F)C4=O)cc3)c2Cl)C(=O)N1` (stereo not shown) [Compound 322], for which the Dmax (read-out: VAV1 Dmax %) amounted to 93.9% and the Dmax (read-out: VAV1 Dmax %, class) is above 90%. The half-maximal degradation concentration (DC50) was 17.7 nM (read-out: VAV1 DC50) and at most 100 nM under setting [1].
With `O=C1CCC(c2cccc(-c3ccc(-n4ccccc4=O)cc3)c2F)C(=O)N1` (stereo not shown) [Compound 234, 3-(2-fluoro-4′-(2-oxopyridin-1(2H)-yl)-[1,1′-biphenyl]-3-yl)piperidine-2,6-dione], the Dmax reads like this: (read-out: VAV1 Dmax %) 75.8%; (read-out: VAV1 Dmax %, class) 60 to 90%. The DC50 reads like this: (read-out: VAV1 DC50) 127 nM; under setting [1], 100 to 1000 nM.
Take `CN1CC(Cc2ccc(-c3cccc(C4CCC(=O)NC4=O)c3Cl)cc2)OC1=O` (stereo not shown) [Compound 454, 3-(2-chloro-4′-((3-methyl-2-oxooxazolidin-5-yl)methyl)-[1,1′-biphenyl]-3-yl)piperidine-2,6-dione]: the Dmax (read-out: VAV1 Dmax %) turned out to be 68.3% and the Dmax (read-out: VAV1 Dmax %, class) was 60 to 90%. For the same molecule, the 50% degradation concentration (DC50) is, setting by setting: (read-out: VAV1 DC50) 140 nM; under setting [1], 100 to 1000 nM.
Consider `CN1CCCN(Cc2ccc(-c3cccc(C4CCC(=O)NC4=O)c3Cl)cc2F)C1=O` (stereo not shown) [Compound 425, 3-(2-chloro-3′-fluoro-4′-((3-methyl-2-oxotetrahydropyrimidin-1(2H)-yl)methyl)-[1,1′-biphenyl]-3-yl)piperidine-2,6-dione], for which the maximal degradation (Dmax) (read-out: VAV1 Dmax %) amounted to 96.5% and the Dmax (read-out: VAV1 Dmax %, class) is above 90%. The DC50 is 10.7 nM (read-out: VAV1 DC50) and at most 100 nM under setting [1].
Turning to `O=C1CCC(c2cccc(-c3ccc(C(=O)N4CCCC4)cc3)c2Cl)C(=O)N1` (stereo not shown) [Compound 181, 3-(2-chloro-4′-(pyrrolidine-1-carbonyl)-[1,1′-biphenyl]-3-yl)piperidine-2,6-dione], the Dmax by setting is: (read-out: VAV1 Dmax %) 85.9%; (read-out: VAV1 Dmax %, class) 60 to 90%. Also, the DC50 runs as follows: (read-out: VAV1 DC50) 33.9 nM; under setting [1], at most 100 nM.
On to `O=C1CCC(c2cccc(-c3ccc(N4CCC5(COC5)CC4=O)cc3)c2Cl)C(=O)N1` (stereo not shown) [Compound 310], for which the Dmax (read-out: VAV1 Dmax %) was 90.5% and the Dmax (read-out: VAV1 Dmax %, class) was above 90%. In addition, the DC50 is 23 nM (read-out: VAV1 DC50) and at most 100 nM under setting [1].
For `CN1CCCN(c2ncc(-c3cccc(C4CCC(=O)NC4=O)c3Cl)cc2F)C1=O` (stereo not shown) [Compound 382, 3-(2-chloro-3-(5-fluoro-6-(3-methyl-2-oxotetrahydropyrimidin-1(2H)-yl)pyridin-3-yl)phenyl)piperidine-2,6-dione], the Dmax was 76% (read-out: VAV1 Dmax %) and 60 to 90% (read-out: VAV1 Dmax %, class). For the same molecule, the half-maximal degradation concentration (DC50) was 167 nM (read-out: VAV1 DC50) and 100 to 1000 nM under setting [1].
For the molecule `O=C1CCC(c2cccc(-c3ccc(N4CCCNC4=O)cc3)c2Cl)C(=O)N1` (stereo not shown) [Compound 372, 3-(2-chloro-4′-(2-oxotetrahydropyrimidin-1(2H)-yl)-[1,1′-biphenyl]-3-yl)piperidine-2,6-dione], the Dmax (read-out: VAV1 Dmax %) came to 94.4% and the Dmax (read-out: VAV1 Dmax %, class) was above 90%. The DC50 by setting is: (read-out: VAV1 DC50) 10 nM; under setting [1], at most 100 nM.
As to `O=C1CCC(c2cccc(-c3ccc(CN4CCOC4=O)cc3)c2Cl)C(=O)N1` (stereo not shown) [Compound 219], the maximal degradation (Dmax) was 81.2% (read-out: VAV1 Dmax %) and 60 to 90% (read-out: VAV1 Dmax %, class). Besides, the DC50 is 105 nM (read-out: VAV1 DC50) and 100 to 1000 nM under setting [1].
Turning to `O=C1CCC(c2cccc(-c3ccc(C(=O)N4CCC(F)(F)C4)cc3)c2Cl)C(=O)N1` (stereo not shown) [Compound 221, 3-(2-chloro-4′-(3,3-difluoropyrrolidine-1-carbonyl)-[1,1′-biphenyl]-3-yl)piperidine-2,6-dione], the Dmax was 77.4% (read-out: VAV1 Dmax %) and 60 to 90% (read-out: VAV1 Dmax %, class). Further, the DC50 by setting is: (read-out: VAV1 DC50) 211 nM; under setting [1], 100 to 1000 nM.
